Patent publication US8546440B2, “Substituted bicyclic imidazole derivatives as gamma secretase modulators” (Janssen Pharmaceuticals, Inc., priority 2008, dated 2013)

Key:
Aβ42 = assay: Demonstration of in vivo efficacy: Aβ42 lowering in brain after single oral dose (Table 13); settings: mouse brain soluble fraction, ELISA, mean, compared to untreated animals
Source text: To determine whether acute administration of an Aβ42 lowering agent would reduce Aβ42 levels in vivo, non-transgenic rodents, e.g. mice or rats were used. Alternatively, two to three month old Tg2576 mice expressing APP695 containing the “Swedish” variant can be used or a transgenic mouse model developed by Dr. Fred Van Leuven (K. U. Leuven, Belgium) and co-workers, with neuron-specific expression of a clinical mutant of the human amyloid precursor protein [V717I] (Moechars et al., 1999 J. Biol. Chem. 274, 6483). Young transgenic mice have high levels of Aβ in the brain but no detectable Aβ deposition. At approximately 6-8 months of age, the transgenic mice start to display spontaneous, progressive accumulation of β-amyloid (Aβ) in the brain, eventually resulting in amyloid plaques within the subiculum, hippocampus and cortex. Animals treated with the Aβ42 lowering agent were examined and compared to those untreated or treated with vehicle and brain levels of soluble Aβ42 and total Aβ would be quantitated by standard techniques, for example, using ELISA. Treatment periods varied from hours to days and were adjusted based on the results of the Aβ42 lowering once a time course of onset of effect could be established.
A typical protocol for measuring Aβ42 lowering in vivo is shown but it is only one of many variations that could be used to optimize the levels of detectable Aβ. For example, Aβ42 lowering compounds were formulated in 20% of Captisol® (a sulfobutyl ether of β-cyclodextrin) in water or 20% hydroxypropyl β cyclodextrin. The Aβ42 lowering agents were administered as a single oral dose or by any acceptable route of administration to overnight fasted animals. After four hours, the animals were sacrificed and Aβ42 levels were analysed.
Blood was collected by decapitation and exsanguinations in EDTA-treated collection tubes. Blood was centrifuged at 1900 g for 10 minutes at 4° C. and the plasma recovered and flash frozen for later analysis. The brain was removed from the cranium and hindbrain. The cerebellum was removed and the left and right hemisphere were separated. The left hemisphere was stored at −18° C. for quantitative analysis of test compound levels. The right hemisphere was rinsed with phosphate-buffered saline (PBS) buffer and immediately frozen on dry ice and stored at −80° C. until homogenization for biochemical assays.
Mouse brains were resuspended in 10 volumes of 0.4% DEA (diethylamine)/50 mM NaCl pH 10 (for non-transgenic animals) or 0.1% 3-[3-cholamidopropyl)-dimethyl-ammonio]-1-propanesulfonate (CHAPS) in tris buffered saline (TBS) (for transgenic animals) containing protease inhibitors (Roche-11873580001 or 04693159001) per gram of tissue, e.g. for 0.158 g brain, add 1.58 ml of 0.4% DEA. All samples were sonicated for 30 seconds on ice at 20% power output (pulse mode). Homogenates were centrifuged at 221.300×g for 50 min. The resulting high speed supernatants were then transferred to fresh tubes and were optionally further purified before the next step. A portion of the supernatant was neutralized with 10% 0.5 M Tris-HCl and this was used to quantify Aβtotal.
The obtained supernatants were purified with Water Oasis HLB reverse phase columns (Waters Corp., Milford, Mass.) to remove non-specific immunoreactive material from the brain lysates prior subsequent Aβ detection. Using a vacuum manifold, all solutions were passed through the columns at a rate of approximately 1 ml per minute, so the vacuum pressure was adjusted accordingly throughout the procedure. Columns were preconditioned with 1 ml of 100% MeOH, before equilibration with 1 ml of H2O. Non-neutralized brain lysates were loaded onto the columns. The loaded samples were then washed twice with the first wash performed with 1 ml of 5% MeOH, and the second wash with 1 ml of 30% MeOH. Finally, the Aβ was eluted from the columns and into 100×30 mm glass tubes, with a solution of 90% MeOH with 2% NH4OH. […]

Compound	Aβ42 (% Ctrl)_Mean (Aβ42) [% Ctrl]	melting point [°C]
COc1cc(Nc2cccn3c(C)c(-c4ccccc4)nc23)ccc1-n1cnc(C)c1 [Compound 5]	66	177.8
COc1cc(Nc2cccn3c(C)c(-c4ccccc4C(F)(F)F)nc23)ccc1-n1cnc(C)c1 [Compound 29]	56	–
Cc1ncn(-c2ccc(Nc3cccn4cc(-c5ccccc5C)nc34)cc2)n1 [Compound 71]	91	–
COc1cc(Nc2cccn3cc(-c4ccc(F)cc4)nc23)ccc1-n1cnc(C)c1 [Compound 1]	65	209.2
COc1cc(Nc2cccn3cc(C4CCOCC4)nc23)ccc1-n1cnc(C)c1 [Compound 4]	93	–
COc1nc(Nc2cccn3c(C)c(-c4ccccc4C(F)(F)F)nc23)ccc1-n1cnc(C)c1 [Compound 138]	65	–
COc1cc(Nc2cccn3c(C)c(-c4ccccc4Cl)nc23)ccc1-n1cnc(C)c1 [Compound 15]	62	204
COc1cccc(-c2cn3cccc(Nc4ccc(-n5cnc(C)c5)c(OC)c4)c3n2)c1 [Compound 33]	80	–
COc1cc(Nc2cccn3cc(C)nc23)ccc1-n1cnc(C)c1 [Compound 50]	67	–
COc1cc(Nc2cccn3c(Cl)c(-c4ccc(F)cc4)nc23)ccc1-n1cnc(C)c1 [Compound 2]	100	168.9
COc1cc(Nc2cccn3c(C)c(-c4c(F)cccc4F)nc23)ccc1-n1cnc(C)c1 [Compound 27]	59	198.2
